For 85 compounds, XC50 results are on record in ChEMBL document CHEMBL1157539, “Thousands of chemical starting points for antimalarial lead identification” (Nature, 2010).

The test system of the assay is Plasmodium falciparum. The assay is described as follows: GSK_TCMDC: Inhibition of Plasmodium falciparum 3D7 in whole erythrocytes, using parasite LDH activity as an index of growth. Format: functional, organism-based. The conditions noted are these: Plasmodium falciparum, 3D7.

In turn, `CC(C)(C)c1nn(-c2ccc(Cl)cc2)c2[nH]c(=O)c(CNCc3cccs3)cc12` displayed an XC50 of 759 nM.
Compound `Cc1cc(NC(=O)[C@@H](Nc2ccc(C#N)c3ccccc23)C2CCCCC2)ccc1F` returned an XC50 of 892 nM.
As to `CCN1CCN(Cc2c(O)ccc3c(=O)c(Oc4cc(C)cc(C)c4)c(C(F)(F)F)oc23)CC1`, the XC50 came to 773 nM.
In the case of `Cc1noc(C)c1-c1cccc(CNCc2cccc(-c3cccc(-c4nc5cccc(C)c5[nH]4)c3)c2)c1` it was 370 nM; in that of `CC(C)COc1ccc(Cl)cc1Cc1ccc(-c2nc3cc(CCN4CCCC4)ccc3[nH]2)o1`, 730 nM; in that of `CN1CCN(c2ccnc3ccc(NC(=O)Nc4ccc(Cl)cc4)cc23)CC1`, 112 nM.
Next, `O=C(Nc1cccc(-c2cccc(-c3nc4cc(F)ccc4[nH]3)c2)c1)c1ccncc1`: 514 nM; `COc1ccc(CNCc2cccc(-c3cccc(-c4nc5cc(C(F)(F)F)ccc5[nH]4)c3)c2)cc1`: 196 nM; `CCCc1cc(Cc2cnc(N)nc2N)cc(CC)c1OC`: 821 nM.
Compound `Fc1cccc(Cn2ncc3cc(Nc4ncnc5sc(C#Cc6ncc[nH]6)cc45)ccc32)c1` showed an XC50 of 1800 nM.
In the case of `O=S(=O)(c1ccc(OC(F)(F)F)cc1)C1CC2CCC(C1)N2S(=O)(=O)c1ccc(Cl)c(C(F)(F)F)c1` (stereo not given) it was 560 nM; in that of `NC(=O)c1ccc(-c2ccc3ccnc(N)c3c2)cc1`, 419 nM; in that of `COc1ccc2nccc([C@@H](O)CN3CCC(NC(=O)[C@@H]4Cc5ccccc5CN4C(=O)OC(C)(C)C)CC3)c2c1`, 892 nM.
In the case of `COc1cc(C(=O)N2N=C(c3c(-c4ccccc4)c4cc(Br)ccc4[nH]c3=O)CC2c2cccc([N+](=O)[O-])c2)cc(OC)c1OC` (stereo not given) it was 943 nM.
In the case of `O=C(NC1CCN(c2ccnc3cc(Cl)ccc23)C1)c1ccc(C(F)(F)F)cc1` (stereo not given) it was 143 nM.
`NC(=O)c1ccsc1NC(=O)CNC(c1ccccc1)c1ccccc1`: the XC50 was found to be 938 nM.
For the compound `Cc1cccc2c3c([nH]c12)C1(CCN(CCc2ccccc2)CC1)NC(C(=O)NCc1ccccc1)C3` (stereo not given), the XC50 was 1000 nM.
In the case of `CCOC(=O)c1ccc(-c2cnc(N)c(-c3nc4cccc(C)c4[nH]3)c2)cc1` it was 281 nM; in that of `COc1ccc(CNC(=O)Nc2cc3cc(-c4ccc(CN(C)C)cc4)ccc3n3c(C)nnc23)cc1`, 852 nM.
In the case of `Cc1cc(N(C)CCCN(C)C)nc(Nc2ccc(Br)cc2)n1` it was 643 nM; in that of `COc1ccc(-c2cncc3ccc(C(=O)NCc4ccncc4)nc23)cc1`, 736 nM; in that of `CCOC(=O)C1=C(C)NC2=C(C(=O)CC(C)(C)C2)C1c1ccc(Cl)cc1` (stereo not given), 923 nM.
In the case of `N#Cc1ccc(C2CCN(CC[C@H](N)Cc3ccc(Cl)s3)CC2)cc1` it was 1260 nM; in that of `CCOC(=O)CCCOc1c(OC)cc(Cc2cnc(N)nc2N)cc1OC`, 778 nM.
As for `O=C(Nc1cccc(-c2cccc(-c3nc4cc(F)ccc4[nH]3)c2)c1)c1ccoc1`, the XC50 turned out to be 333 nM.
`CC(C)CCNC(=O)c1cc(C(=O)c2cc(F)ccc2O)cn(CCC(C)C)c1=O` yielded an XC50 of 753 nM.
With `CN1CCCN(Cc2ccc(-c3cccc(NC(=O)c4ccc(Cl)cc4)c3)cc2)CC1`, the XC50 was found to be 610 nM.
Next, `Cc1cc(N[C@@H](Cc2ccccc2)C(=O)NCc2cccs2)nc(NCCc2cccnc2)n1`: 1010 nM.
Next, `N#Cc1ccc2c(c1)CCN(CCC1CCC(NC(=O)/C=C/c3cccc4ccccc34)CC1)CC2` (stereo not given): 729 nM; `Nc1ncc(-c2ccccc2)cc1-c1nc2cc(Cl)c(F)cc2[nH]1`: 263 nM; `O=C(/C=C/c1ccc(Cl)c(Cl)c1)NCC1CCC(N2CCC(c3c[nH]c4ccccc34)CC2)CC1` (stereo not given): 172 nM.
`O=C(/C=C/c1ccc(Cl)c(Cl)c1)NCCCCCN1CCC(C(=O)Nc2ccc3c(c2)OCO3)CC1` displayed an XC50 of 839 nM.
`Cc1c(C(=O)Nc2cc(Sc3ccc(F)cc3)cc([N+](=O)[O-])c2)sc2ncn(Cc3ccccc3F)c(=O)c12` returned an XC50 of 798 nM.
For the compound `CCN1CCC(N(Cc2ccc(-c3ccc(C(F)(F)F)cc3)cc2)C(=O)Cn2c(CCc3cccc(F)c3F)cc(=O)c3c2CCC3)CC1`, the XC50 stood at 972 nM.
Compound `Nc1ncc(-c2ccsc2)c2ccc(-c3cc(NCc4ccccc4)ncn3)cc12` had an XC50 of 861 nM.
In the case of `COc1ccccc1Nc1nc(C)cc(NCc2ccc(-c3c(C)noc3C)cc2)n1` it was 872 nM.
Next, `Clc1ccc(/N=C(/NCCCCCCCN/C(=N\c2ccc(Cl)cc2)Nc2ccc(Cl)cc2)Nc2ccc(Cl)cc2)cc1`: 321 nM.
For the compound `COc1ccc(Br)cc1/C=C/C(=O)Nc1cccc(C2CCCN(C)C2)c1` (stereo not given), the XC50 worked out at 892 nM.
In the case of `COc1ccc(-c2csc3nc(C)nc(Cl)c23)cc1OC` it was 357 nM; in that of `CC1CN(C(=O)c2sc3ccccc3c2Cl)CC(C)O1` (stereo not given), 87.9 nM.
Next, `Clc1ccc(CNC2CCN(CC3CCCCC3)CC2)cc1`: 1110 nM; `CC(C)C[C@H](NC(=O)c1cc2ccccc2s1)C(=O)N[C@H]1CCN(Cc2ccc(I)c(OCCN3CCCC3)c2)C1`: 1350 nM; `CCCCCCNC(=O)C1Cc2c([nH]c3ccc(F)cc23)C2(CCN(Cc3ccccc3)CC2)N1` (stereo not given): 871 nM.
In the case of `COc1ccccc1C1CCN(C2CCC(NC(=O)/C=C/c3ccc(F)c(F)c3)CC2)CC1` (stereo not given) it was 1320 nM.
In turn, `CC1CN(c2ncc(-c3ccc(CNC4Cc5ccccc5C4)cc3)cn2)CC(C)N1` (stereo not given) gave an XC50 of 1160 nM.
In the case of `CCCCCCCCCCN1C(=O)C2C(CCCCNC(C)=O)NC3(C(=O)N(Cc4ccc(C(C)(C)C)cc4)c4ccccc43)C2C1=O` (stereo not given) it was 993 nM; in that of `COc1ccc(-n2nc(C(=O)NCc3ccccc3OC)c3ccccc3c2=O)cc1`, 217 nM; in that of `O=C(/C=C/c1ccc(C(F)(F)F)cc1)NCCCCCN1CCN(C(=O)Nc2ccc(F)c(Cl)c2)CC1`, 1210 nM.
In the case of `O=C(/C=C/c1cccc(C(F)(F)F)c1)NCCCCCN1CCN(C(=O)Nc2ccc(Cl)c(Cl)c2)CC1` it was 935 nM; in that of `COc1ccccc1-c1cccc(-c2cccc(NC(=O)c3ccc([N+](=O)[O-])o3)c2)n1`, 603 nM; in that of `COc1ccccc1Nc1nc(C)cc(NCc2ccc(-n3ccnc3)cc2)n1`, 1050 nM.
Next, `CC(=O)Nc1ccc(NC(=O)c2cc(-c3ccc(C)cc3O)n[nH]2)cc1`: 490 nM.
Regarding `COc1cc(NC(=O)c2sc(-c3ccc(Cl)cc3)cc2NC(=O)CN2CC[C@@H](O)C2)ccc1OCCN1CCCC1`, the XC50 came out at 802 nM.
In the case of `CC(C)(CNCc1ccc(F)c(F)c1)c1nc(-c2ccnc(N)n2)c(-c2ccc(Cl)c(O)c2)[nH]1` it was 740 nM.
Next, `O=C(/C=C/c1ccc(Cl)c(Cl)c1)N1CCC(CCN2CCc3[nH]c4ccccc4c3C2)CC1`: 886 nM.
Consider `O=C(Nc1ccc(-n2ccc(C(F)(F)F)n2)cc1)c1cccs1`, for which the XC50 came to 1070 nM.
In the case of `COc1cccc2cc(C(=O)N[C@@H](CC(C)C)C(=O)N[C@H](/C=N/NC(=O)OC(C)(C)C)CC(=O)OC(C)(C)C)oc12` it was 403 nM.
In the case of `CC(C)NCc1ccc(-c2cccc(NC(=O)c3cccc(C#N)c3)c2)cc1` it was 406 nM.
The compound `CC(=O)Nc1ccc(CN2CCC(NC(=O)c3ccc(-c4cccc(F)c4)s3)CC2)cc1` showed an XC50 of 1430 nM.
In the case of `C=CCN(c1ccc(OC)cc1)S(=O)(=O)c1ccc(Cl)c(C(=O)Nc2cccc(C#N)c2)c1` it was 577 nM.
Next, `Oc1ccc(CCNCCCCCCNCCc2ccc(Cl)c(Cl)c2)cc1O`: 726 nM; `Cc1ccc(C2(O)CC3CCC(C2)N3C)cc1` (stereo not given): 611 nM.
Next, `NS(=O)(=O)c1ccc(Nc2nccc(-c3c(-c4cccc(NC(=O)c5c(F)cccc5F)c4)nn4ccccc34)n2)cc1`: 762 nM; `O=C(N[C@@H](Cc1ccccc1)C(=O)NC1CCCc2ccccc21)c1ccc(O)c(-c2ccc(Cl)c(Cl)c2)c1` (stereo not given in full): 209 nM; `COc1ccc2sc(CNCCCNc3cc(=O)c4ccccc4[nH]3)c(Cl)c2c1`: 1070 nM.
Compound `CCNC(C)(C)CN(Cc1ccc(-c2ccc(C(F)(F)F)cc2)cc1)C(=O)Cn1c(CCc2cccc(F)c2F)nc(=O)c2ccccc21` returned an XC50 of 813 nM.
In the case of `Fc1ccc(Nc2ccnc3cc(I)ccc23)c(Cl)c1` it was 1080 nM; in that of `Nc1nc(N)c2c(ccc3nn(C4CCCC4)cc32)n1`, 286 nM.
Next, `Cc1ccc(-c2ccc(Cl)cc2Oc2cnc(N)nc2N)o1`: 1080 nM; `COc1cc(OC)cc(-c2nn(-c3ccc([N+](=O)[O-])cc3C#N)c(=S)n2CC2CCCO2)c1` (stereo not given): 852 nM.
In the case of `N#Cc1ccc(NC(=O)Nc2ccc3c(c2)CCN(C2CCC2)CC3)cc1` it was 628 nM.
Turning to `Brc1ccc(C=NNc2nc3ccccc3[nH]2)cc1`, the XC50 was found to be 700 nM.
In the case of `Cc1cc(=NN=Cc2ccc(Cl)cc2)c2ccc(F)cc2[nH]1`, the XC50 was determined as 757 nM.
In the case of `O=C(CCCc1ccccc1)Nc1cccc(N2CCC(N3CCN(c4ccccc4O)CC3)CC2)c1` it was 786 nM; in that of `O=C(/C=C/c1ccsc1)N1CCC(CCN2CCC(c3c[nH]c4ccccc34)CC2)CC1`, 905 nM.
For the compound `CCc1c[nH]c2c(N(c3ccccc3)S(C)(=O)=O)cc(C(=O)N[C@@H](Cc3ccccc3)[C@H](O)CNC(C)(C)CCCC(C)C)cc12`, the XC50 was found to be 823 nM.
In the case of `O=C(c1cccs1)N1CCN(c2ccc([N+](=O)[O-])c(NC3CC3)c2)CC1` it was 767 nM; in that of `O=C(CCNc1ccnc(NCCc2ccc(F)cc2)n1)Nc1ccccc1`, 829 nM.
In the case of `COc1ccc2nccc([C@@H](O)CN3CCC(NCCOc4ccccc4[N+](=O)[O-])CC3)c2c1` it was 384 nM; in that of `Cc1[nH]c2ccccc2c1C(=O)CSc1nn(-c2ccccc2)c(=S)s1`, 699 nM.
In the case of `O=C(Nc1ccc(N2CCCN(Cc3cccc(F)c3)CC2)cc1)c1cccs1` it was 546 nM; in that of `O=c1ccc2ccc(F)cc2n1CCN1CCC(NCc2ccc(-c3ccccn3)s2)CC1`, 887 nM; in that of `O=C(/C=C/c1ccc(C(F)(F)F)cc1)NCCCCCN1CCCN(C(=O)Nc2cccc(Cl)c2)CC1`, 992 nM.
`Cc1cc(=NN=Cc2ccc(Cl)cc2)c2cccc(C)c2[nH]1`: the XC50 was 723 nM.
Compound `CCCCCC(C)c1cc(O)c2c(c1)OC(C)(C)C=C2C1=CCN(Cc2ccccc2)CC1` (stereo not given) had an XC50 of 780 nM.
